Test results from US20260174766A1, “COMBINATION OF MENIN INHIBITOR(S) AND IMMUNOPROTEASOME INHIBITOR(S) FOR TREATMENT OF LEUKEMIA” (Medizinische Hochschule Hannover, priority 2022, published 2026).

Key:
[1] = test system: MLLr leukemic cells (MLL-AF9 and MLL-AF4 PDX); experiment: Patient derived xenografts (MLL-AF9, MLL-AF4) in NSGW41 mice treated with PR-957; assay type: in vivo, mouse
Excerpt: NOD.Cg-Prkdc^scid Il2rg^tm1Wjl Tg(CMV-IL3, CSF2, KITLG) 1Eav/MloySzJ (NSGS), NOD.Cg-Prkdc^scid Il2rg^tm1Wjl/SzJ (NSG) or NOD.Cg-Prkdc^scid Il2rg^tm1Wjl/RJ (NXG) were obtained from The Jackson Laboratory (Bar Harbor, ME, USA). 8-12-weeks old adult mice (male and female) were irradiated with 2 Gy (single dose) before transplantation. 1×10^5 MOLM-13, ML-2 or MV-4; 11 cells transduced with either of two PSMB8/LMP7 shRNAs or non-targeting control; with a pLEX vector containing the sequence of BASP1 or an empty vector; or treated ex vivo with the indicated inhibitors were injected intravenously via the tail vein. For patient derived xenograft experiments (PDX) of human MLLr leukemia we used an improved model for human HSC transplantation and analysis, that has been developed from immune-deficient mouse strains containing Kit mutations: NOD.Cg-^KitW-41J Prkdc^scid Il2rg^tm1Wjl/WaskJ (NSGW41) (Cosgun et al., 2014). These mice can be engrafted without prior conditioning and therefore maintain an intact niche and microenvironment. Human myeloid engraftment (hCD45+ CD13+) was analyzed by flow cytometry.
In order to assess for the functional relevance of immunoproteasome component LMP7/PSMB8 in human AML, genetic inactivation of LMP7/PSMB8 by RNAi was performed with two independent shRNAs against LMP7/PSMB8 (shPSMB8-3 and shPSMB8-2) compared to non-targeting control (shNT) in MLLr cell lines. […] However, induction of apoptosis could only be detected in less than 40% of cells with no significant variability between MLLr cell lines and the individual shRNAs. Efficient LMP7/PSMB8 depletion was confirmed by Western blotting (FIG. 1E). […] Following xenotransplantation, the relative abundance of human AML cells in the murine peripheral blood was measured over time by flow cytometry, and PR-957 treatment was initiated once hCD45+ AML cells constituted 0.1%-0.5% of PB cells. […]

[2] = test system: human MLL-rearranged AML cell lines; experiment: Cell cycle analysis (EdU, % cells in S phase); assay type: cell-based; conditions: 100 nM PR-957, 24 hours; MOLM-13, MV-4;11, ML-2, KOPN-8; FIG. 1I
Description: Immunophenotyping of immature and mature cell compartments and of leukemic cells was performed as described before (Heidel et al., 2013; Heidel et al., 2012). The antibodies used for cell surface staining are provided in Table 1 at the end of section 2 (“Key Resource Table”). Cells were stained in PBS/1% FBS for 1.5 hours at 4° C. SYTOX® Blue Dead Cell Stain (Life Technologies, Darmstadt, Germany) was used to exclude dead cells. Flow cytometry was performed on a LSR-Fortessa or FACS Canto II cytometer (Becton Dickinson, Heidelberg, Germany). Cell cycle analysis was performed using the Click-iT™ Plus EdU Alexa Fluor™ 647 Assay Kit (Thermo Scientific, Waltham, MA, USA) as per the manufacturer's instructions.
Samples were labeled for FACs based analysis of cell cycle using the Click-iTR EdU assay. n=3 independent experiments; paired t test.

[3] = test system: normal hematopoietic cells; experiment: Normal hematopoiesis: competitive transplantation after in vivo PR-957 treatment; design: species or system mouse
[4] = test system: leukemic stem cell (LSC), MLL-AF9; experiment: Limiting dilution assay of MLL-AF9 leukemic bone marrow cells treated ex vivo (ELDA); assay type: in vivo, mouse; conditions: 200 nM PR-957 ex vivo 48 hours

**Q.** Which results are given for COc1ccc(C[C@H](NC(=O)[C@H](C)NC(=O)CN2CCOCC2)C(=O)N[C@@H](Cc2ccccc2)C(=O)[C@]2(C)CO2)cc1 [PR-957, (2S)-3-(4-methoxyphenyl)-N-[(2S)-1-[(2S)-2-methyloxiran-2-yl]-1-oxo-3-phenylpropan-2-yl]-2-[[(2S)-2-[(2-morpholin-4-ylacetyl)amino]propanoyl]amino]propanamide]?
**A.** antileukemic activity in PDX models ([1]; 3 mg/KG i.v. 5 consecutive days, every 2 weeks, escalated to 6 and 10 mg/KG, NSGW41 mice): potent antileukemic activity; cell morphology of AML cells (cytospin analysis) ([1]; PDX after onset of AML, FIG. 1K): signs of cellular differentiation; survival and disease penetrance in PDX ([1]; over a period of 100 days, FIG. 1J): improved survival and reduced disease penetrance; cell cycle activity (% of cells in S phase) [2]: reduced cell cycle activity; hematopoietic stem- and progenitor cell abundance ([3]; PR-957 for 3 weeks (10 mg/kg, 5 days/week), FIGS. 2K,L,M): did not show any changes; stem- and progenitor cell chimerism in secondary recipients ([3]; previous PR-957 treatment, FIGS. 2O,P,Q): not affected; peripheral blood chimerism in secondary recipient mice ([3]; until week 16, FIG. 2N): no changes; reduction in LSC frequency compared to diluent treated controls [4]: more than log-fold reduction; LSC frequency ([4]; ELDA, DMSO 1/4550, FIG. 2H,I): 1/57610
